The term MIC90 denotes the lowest concentration that inhibits either 90% of growth or 90% of the strains tested, depending on the study. Lower therefore signals greater potency.

≈ marks a conversion by molar mass, not a printed value.

Consider 7 compounds from ChEMBL document CHEMBL3862018, “Structure-activity of antifungal compounds inspired by aminobisabolenes from the sponge Halichondria sp” (2016).

One assay has as its system Candida albicans. In words: Antifungal activity against Candida albicans ATCC 14503 after 24 hrs by microbroth dilution method. Format: functional. The note with it: ATCC 14503, 24 h. (In general: In broth dilution the organism is exposed to a series of concentrations in liquid medium.)
Assay [1] deals with Cryptococcus gattii species complex. As to the kind of experiment: Antifungal activity against Cryptococcus gattii after 24 hrs by microbroth dilution method. Format: functional, Cryptococcus bacillisporus.
Assay [2] can be described thus: Antifungal activity against Candida glabrata after 24 hrs by microbroth dilution method. Format: functional. Particulars: Nakaseomyces glabratus.
Assay [3] in a line: Antifungal activity against Candida krusei after 24 hrs by microbroth dilution method. Format: functional. The note with it: Pichia kudriavzevii.
A short description of assay [4]: Antifungal activity against Trichophyton rubrum MRL666 after 72 hrs by CLSI M38-A method. The assay is classed as functional.

On to `CN(C/C=C/C#CC(C)(C)C)Cc1cccc2ccccc12` [TERBINAFINE], for which the MIC90 is over 250 µM in the assay with Candida albicans, 5.3 µM (≈ 1.54 µg/mL) in assay [1], over 250 µM in assay [2] and over 250 µM in assay [3].
Consider `CC(C)=CCC[C@](C)(N)[C@H]1CC=C(C)CC1`, for which the MIC90 in the assay on Candida albicans came out at 72 µM (≈ 15.9 µg/mL); in assay [1] it was 53 µM (≈ 11.7 µg/mL); in assay [2] it was 38 µM (≈ 8.41 µg/mL); in assay [3], 36 µM (≈ 7.97 µg/mL); in assay [4] it was 17 µM (≈ 3.76 µg/mL).
On to `CC(C)CCC[C@](C)(N)C1CCC(C)CC1` (some centres not stated), for which the MIC90 against Candida albicans turned out to be 50 µM (≈ 11.3 µg/mL); in assay [1], 18 µM (≈ 4.06 µg/mL); in assay [2], 18 µM (≈ 4.06 µg/mL); in assay [3], 14 µM (≈ 3.16 µg/mL).
Turning to `CC(C)CCC[C@@](C)(C1CCC(C)CC1)N(C)C` (some centres not stated), the MIC90 against Candida albicans is 142 µM (≈ 36 µg/mL); in assay [1], 31 µM (≈ 7.86 µg/mL); in assay [2], 139 µM (≈ 35.2 µg/mL); in assay [3], 58 µM (≈ 14.7 µg/mL).
For the compound `C[C@@H]1[C@H](O)[C@@H](C)/C=C/C=C/C=C/C=C/C=C/C=C/C=C/[C@H](O[C@@H]2O[C@H](C)[C@@H](O)[C@H](N)[C@@H]2O)C[C@@H]2O[C@](O)(C[C@@H](O)C[C@@H](O)[C@H](O)CC[C@@H](O)C[C@@H](O)CC(=O)O[C@H]1C)C[C@H](O)[C@H]2C(=O)O` [AMPHOTERICIN B], the MIC90 with Candida albicans was 0.3 µM (≈ 0.277 µg/mL); in assay [1], 0.1 µM (≈ 0.0924 µg/mL); in assay [2], 0.2 µM (≈ 0.185 µg/mL); in assay [3] it was 0.5 µM (≈ 0.462 µg/mL).
In the case of `CC(C)=CCC[C@@](C)([C@H]1CC=C(C)CC1)N(C)Cc1cccc2ccccc12`, the MIC90 (against Candida albicans; in assay [1]; in assay [4]) was over 250 µM in each case.
As for `CC(C)=CCC[C@](C)(NCc1cccc2ccccc12)[C@H]1CC=C(C)CC1`, the MIC90 is over 250 µM in the assay on Candida albicans, over 250 µM in assay [1] and 70 µM (≈ 25.3 µg/mL) in assay [4].
